Experimental data from patent US9868746B2, “Substituted 5-aminothieno[2,3-C]pyridazine-6-carboxamide analogs as positive allosteric modulators of the muscarinic acetylcholine receptor M4” (Vanderbilt University, priority 2012, dated 2018).
pEC50: −log10 of the molar value. Where two headings read alike, the source gives them in different places.

Target: T1, mAChR M4 (Homo sapiens, UniProt P08173)
T1 construct: expressed in transfected cells; host or cells: CHO-K1 cells stably transfected with M4 cDNA and chimeric G-protein Gqi5
T1 sequence (P08173 1-479): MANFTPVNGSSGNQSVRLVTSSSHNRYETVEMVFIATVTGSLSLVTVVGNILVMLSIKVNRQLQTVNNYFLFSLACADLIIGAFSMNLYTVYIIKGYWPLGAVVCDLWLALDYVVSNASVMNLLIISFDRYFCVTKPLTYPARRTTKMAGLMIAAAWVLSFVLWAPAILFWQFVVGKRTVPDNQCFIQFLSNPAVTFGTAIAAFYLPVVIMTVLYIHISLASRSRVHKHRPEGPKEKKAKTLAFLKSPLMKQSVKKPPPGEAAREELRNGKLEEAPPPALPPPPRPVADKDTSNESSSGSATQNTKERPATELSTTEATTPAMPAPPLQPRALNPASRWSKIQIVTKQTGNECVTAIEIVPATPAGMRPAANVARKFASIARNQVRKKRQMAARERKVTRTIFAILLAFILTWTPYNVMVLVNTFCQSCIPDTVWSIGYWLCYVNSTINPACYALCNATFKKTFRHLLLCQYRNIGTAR
Experiment: mAChR M4 cell-based functional assay (calcium mobilization, potentiation of EC20 acetylcholine response)
Details: for pEC50: mAChR M4 cell-based functional assay, >10,000 estimated for low potency compounds without plateau, read-out: EC50

| Emax at 30 µM (% ACh maximum at 30 μM) [%] | pEC50 | Emax (%)* (% ACh maximum at 30 μM) [%] | Compound | EC50 (EC50 (nM)) [nM] |
| --- | --- | --- | --- | --- |
| 44 | 7.06 |  | Cc1nnc2sc(C(=O)N3CC(F)(c4cccc(-c5ccncc5)c4)C3)c(N)c2c1C [Example B323] |  |
| 53 | 5.66 |  | Cc1nnc2sc(C(=O)N3CCC(c4ccncc4)C3)c(N)c2c1C (stereo not drawn) [Example B156] |  |
| 48 | < 5.00 |  | CS(=O)(=O)c1ccc(CNC(=O)c2sc3nnc(-c4ccccc4)c(-c4ccccc4)c3c2N)cc1 [Example B41] |  |
| 62 | 7.19 |  | Cc1nnc2sc(C(=O)NCc3ccc4[nH]ccc4c3)c(N)c2c1C [Example B195] |  |
| 40 | < 5.00 |  | Nc1c(C(=O)NC2CC2)sc2nnccc12 [Example B1] |  |
| 34 | < 5.00 |  | Cc1nnc2sc(C(=O)N3CCc4nn(C)cc4C3)c(N)c2c1C [Example B380] |  |
| 53 | 6.01 |  | Cc1nnc2sc(C(=O)N3CC(NC(=O)CCc4ccccc4)C3)c(N)c2c1C [Example B177] |  |
| 55 | 6.22 |  | Cc1nnc2sc(C(=O)NC3CN(C(=O)NCCCN4CCOCC4)C3)c(N)c2c1C [Example B337] |  |
| 48 | 5.72 |  | Cc1nnc2sc(C(=O)N3CC(NC(=O)c4ccncc4)C3)c(N)c2c1C [Example B184] |  |
| 32 | < 5.00 |  | CC(=O)NCCNC(=O)c1sc2nnc(C)c(C)c2c1N [Example B366] |  |
| 63 | 6.64 |  | Cc1nnc2sc(C(=O)NCc3ccc(F)c(S(C)(=O)=O)c3)c(N)c2c1C [Example B78] |  |
| 65 | 7.42 |  | Cc1nnc2sc(C(=O)NCc3ccc(-c4cncnc4)cc3)c(N)c2c1C [Example B462] |  |
| 49 | 5.64 |  | Cc1nnc2sc(C(=O)NCCc3ccncc3)c(N)c2c1C [Example B93] |  |
| 57 | 7.49 |  | Cc1nnc2sc(C(=O)NC3CN(C(=O)Nc4ccc(F)cc4)C3)c(N)c2c1C [Example B351] |  |
| 47 | 5.57 |  | COc1ccc(CNC(=O)c2sc3nnc(-c4ccccc4)c(-c4ccccc4)c3c2N)cc1 [Example B40] |  |
| 74 | 7.64 |  | [2H]C([2H])(NC(=O)c1sc2nnc(C)c(C)c2c1N)c1ccc(S(=O)(=O)C(F)F)cc1 [Example B477] |  |
| 74 | 7.04 |  | Cc1nnc2sc(C(=O)NC3CCN(C(=O)c4cccs4)C3)c(N)c2c1C (stereo not drawn) [Example B200] |  |
| 90 | 7.03 |  | Cc1nnc2sc(C(=O)NCc3ccc4c(c3)OCO4)c(N)c2c1C [Example B12] |  |
| 60 | 7.13 |  | Cc1nnc2sc(C(=O)NC3CN(C(=O)c4cccc(Cl)c4)C3)c(N)c2c1C [Example B392] |  |
| 82 | 6.48 |  | Cc1cc(F)ncc1-c1ccc(CNC(=O)c2sc3nnc(C)c(C)c3c2N)cc1 [Example B498] |  |

| Emax at 30 µM (% ACh maximum at 30 μM) [%] | pEC50 | Emax (%)* (% ACh maximum at 30 μM) [%] | Compound | EC50 (EC50 (nM)) [nM] |
| --- | --- | --- | --- | --- |
| 64 | 7.57 |  | Cc1nnc2sc(C(=O)NCc3ccc(-c4cc(F)nc(F)c4)cc3)c(N)c2c1C [Example B455] |  |
| 83 | 6.64 |  | COC(=O)N1CC(NC(=O)c2sc3nnc(C)c(C)c3c2N)C1 [Example B153] |  |
| 68 | 5.59 |  | Cc1nnc2sc(C(=O)NC(C)(C)C)c(N)c2c1C [Example B68] |  |
| 56 | 7.09 |  | Cc1nnc2sc(C(=O)NC3CN(S(=O)(=O)c4ccccc4)C3)c(N)c2c1C [Example B159] |  |
| 66 | 7.30 |  | Cc1nnc2sc(C(=O)N3CC(C4CCCCC4)C3)c(N)c2c1C [Example B262] |  |
| 52 | 5.77 |  | Cc1nnc2sc(C(=O)N3CCCC(c4ccccc4)C3)c(N)c2c1C (stereo not drawn) [Example B107] |  |
| 68 | 7.09 |  | Cc1nnc2sc(C(=O)NC3CN(S(=O)(=O)CC(F)(F)F)C3)c(N)c2c1C [Example B119] |  |
| 44 | 6.00 |  | Cc1nnc2sc(C(=O)NCc3ccc(-c4ccc5c(c4)OCO5)cc3)c(N)c2c1C [Example B501] |  |
| 41 | < 5.00 |  | Cc1nnc2sc(C(=O)N3CC(NCc4ccncc4)C3)c(N)c2c1C [Example B60] |  |
| 61 | 6.70 |  | COc1ccc(C(=O)N2CC(NC(=O)c3sc4nnc(C)c(C)c4c3N)C2)c(OC)c1 [Example B161] |  |
| 51 | 5.96 |  | Cc1nnc2sc(C(=O)N3CC(N)(c4ccccc4)C3)c(N)c2c1C [Example B306] |  |
| 81 | 7.47 |  | Cc1nnc2sc(C(=O)NCc3ccc(C(F)F)cc3)c(N)c2c1C [Example B260] |  |
| 53 | 5.46 |  | Cc1nnc2sc(C(=O)N[C@@H]3CCN(S(C)(=O)=O)C3)c(N)c2c1C [Example B77] |  |
| 57 | 6.55 |  | Cc1nnc2sc(C(=O)NC3CCCC3)c(N)c2c1C [Example B87] |  |
| 95 | 7.06 |  | Cc1nnc2sc(C(=O)NC3CN(S(=O)(=O)c4ccc(C(F)(F)F)cc4)C3)c(N)c2c1C [Example B147] |  |
| 46 | 6.82 |  | Cc1nnc2sc(C(=O)N3CC(F)(c4cccc(F)c4)C3)c(N)c2c1C [Example B293] |  |
| 33 | < 5.00 |  | Cc1nnc2sc(C(=O)NCCN(C)C(=O)C3CC3)c(N)c2c1C [Example B343] |  |
| 65 | 6.92 |  | Cc1nnc2sc(C(=O)NC3CN(C(=O)c4ccc(OC(F)(F)F)cc4)C3)c(N)c2c1C [Example B409] |  |
| 75 | 6.47 |  | Cc1ccc(S(=O)(=O)N2CCC(NC(=O)c3sc4nnc(C)c(C)c4c3N)C2)s1 (stereo not drawn) [Example B215] |  |
| 56 | 6.77 |  | Cc1nnc2sc(C(=O)N3CC(F)(c4ccccc4)C3)c(N)c2c1C [Example B173] |  |

| Emax at 30 µM (% ACh maximum at 30 μM) [%] | pEC50 | Emax (%)* (% ACh maximum at 30 μM) [%] | Compound | EC50 (EC50 (nM)) [nM] |
| --- | --- | --- | --- | --- |
| 90 | 6.92 |  | Cc1nnc2sc(C(=O)NC3CN(S(=O)(=O)c4cccc5c4OCCC5)C3)c(N)c2c1C [Example B143] |  |
| 64 | 6.07 |  | Cc1nnc2sc(C(=O)NC3CCN(C(=O)CC4CCCCC4)C3)c(N)c2c1C (stereo not drawn) [Example B241] |  |
| 82 | 7.49 |  | Cc1cc(-c2ccc(CNC(=O)c3sc4nnc(C)c(C)c4c3N)cc2)cnc1Cl [Example B458] |  |
| 73 | 6.89 |  | Cc1nnc2sc(C(=O)NCc3ccc(CN(C)C)cc3)c(N)c2c1C [Example B328] |  |
| 50 | < 5.00 |  | Cc1nnc2sc(C(=O)NCC3CCS(=O)(=O)C3)c(N)c2c1C (stereo not drawn) [Example B148] |  |
| 56 | 5.44 |  | Cc1nnc2sc(C(=O)N3CC(NCc4ccccc4)C3)c(N)c2c1C [Example B65] |  |
| 71 | 6.64 |  | Cc1nnc2sc(C(=O)NC3CCN(c4ccc(OC(F)(F)F)cc4)C3)c(N)c2c1C (stereo not drawn) [Example B273] |  |
| 43 | 5.96 |  | COc1ccccc1C1(OC)CN(C(=O)c2sc3nnc(C)c(C)c3c2N)C1 [Example B294] |  |
| 55 | 6.74 |  | CCCCC1(F)CN(C(=O)c2sc3nnc(C)c(C)c3c2N)C1 [Example B307] |  |
| 50 | < 5.00 |  | Cc1nnc2sc(C(=O)N3CC4(CN(C(=O)c5ccccc5)C4)C3)c(N)c2c1C [Example B404] |  |
| 58 | 7.66 |  | Cc1nnc2sc(C(=O)NC3CN(C(=O)OCc4ccccc4)C3)c(N)c2c1C [Example B124] |  |
| 76 | 6.06 |  | CCCCOc1ccc(C(=O)N2CCC(NC(=O)c3sc4nnc(C)c(C)c4c3N)C2)cc1 (stereo not drawn) [Example B212] |  |
| 54 | 7.01 |  | Cc1nnc2sc(C(=O)N3CC4CN(c5cccc(Br)n5)CC4C3)c(N)c2c1C (stereo not drawn) [Example B437] |  |
| 82 | 6.89 |  | Cc1ccc(S(=O)(=O)N2CC(NC(=O)c3sc4nnc(C)c(C)c4c3N)C2)cc1F [Example B145] |  |
| 67 | 6.08 |  | Cc1nnc2sc(C(=O)N3CCC(NC(=O)OCc4ccccc4)C3)c(N)c2c1C (stereo not drawn) [Example B220] |  |
| 63 | 6.15 |  | Cc1nnc2sc(C(=O)N3CCC4(CCCC4)C3)c(N)c2c1C [Example B381] |  |
| 68 | 7.10 |  | Cc1nnc2sc(C(=O)NCc3ccc(CN4CCCCC4)cc3)c(N)c2c1C [Example B504] |  |
|  | 7.70 | 84 | Cc1nnc2sc(C(=O)NCc3ccc(C(C)(O)C(F)(F)F)cc3)c(N)c2c1C (single isomer, unassigned) [Example B187] |  |
| 66 | 7.55 |  | Cc1nnc2sc(C(=O)NCc3ccc(O)c(F)c3)c(N)c2c1C [Example B158] |  |
| 33 | 6.04 |  | Cc1nnc2sc(C(=O)N3CC(O)(c4ccccc4)C3)c(N)c2c1C [Example B179] |  |

| Compound | Emax at 30 µM (% ACh maximum at 30 μM) [%] | pEC50 | Emax (%)* (% ACh maximum at 30 μM) [%] | EC50 (EC50 (nM)) [nM] |
| --- | --- | --- | --- | --- |
| Cc1nnc2sc(C(=O)N3CCC(NC(=O)Oc4ccccc4)C3)c(N)c2c1C (stereo not drawn) [Example B205] | 71 | 6.24 |  |  |
| Cc1nnc2sc(C(=O)NC3CN(C(=O)Oc4ccc(N=[N+]=[N-])cc4)C3)c(N)c2c1C [Example B421] | 84 | 7.82 |  |  |
| Cc1nnc2sc(C(=O)NCc3ccc(S(=O)(=O)C(C)C)cc3)c(N)c2c1C [Example B48] | 77 |  |  | 48 |
